From patent US12465582B2, “(S)-2-amino-6-((3-aminopropyl)amino)hexanoic acid (APL) for use in the treatment of non-alcoholic steatohepatitis (NASH), liver inflammation, hepatocellular ballooning, liver fibrosis and steatosis” (Temple University—Of The Commonwealth System Of Higher …, priority 2020, dated 2025)

Assays:
Type in all cases: in vivo
Zucker fa/fa obese rats = assay: Glucose tolerance test (GTT) in Zucker rat model of NASH; details: 100 mg/kg APL p.o. b.i.d., 78 days, **p<0.01
Text: Zucker fa/fa obese rats and Zucker Fa/fa lean rats (7-week old male animals obtained from Charles Rivers Laboratories, Wilmington, MA, USA) were maintained in individual cages (1 rat per cage to encourage sedentary activity) and had free access to standard rodent chow (Cat #5053, obtained from Labdiet, Saint Louis, MO) and water (filtered and packed using a Hydrapak system) for 7 days until the start of the experiment. Zucker fa/fa obese rats were randomly assigned to two groups: 1) vehicle p.o.b.i.d. (oral administration, twice a day) for 78 days (n=7); and 2) 100 milligram per kilogram (mg/kg) body weight APL (p.o.b.i.d.) for 78 days (n=8). Zucker Fa/fa lean rats (n=4) were administered vehicle (p.o.b.i.d.) for 78 days. Phosphate-buffered saline (PBS), which is the solution used to dissolve APL, was used as vehicle solution. APL powder was dissolved under sterile conditions with PBS at a concentration of 100 mg/mL; volumes were adjusted for each animal accordingly to their body weight. […]
At the conclusion of the experimental time period (78 days for rats and 130 days for mice), the animals were subjected to a glucose tolerance test (GTT) as follows. […] Glucose levels were measured at 0, 15, 30, 45, 60, and 120 minutes after glucose administration. Glucose was measured using the AlphaTRAK 2 glucometer from Abbott

[1] = system: C57BL/6J mice fed high fat/high fructose diet (HFD); assay: Glucose tolerance test (GTT) in diet-induced obesity (HFD) mouse model of NASH; details: APL 200 mg/kg/day p.o. in two doses, 130 days
Text: C57BL/6J mice 5 week old male mice obtained from Jackson Laboratories, Bar Harbor, ME, USA) were maintained in cages (5 mice per cage) and had free access to standard rodent chow (Cat #5053, obtained from Labdiet, Saint Louis, MO) and water (filtered and packed using a Hydrapak system) for 5 days until the start of the experiment. The animals were then randomly assigned to five groups (n=5 for each group) receiving different diets and treatments as shown in Table A for 130 days. Each treatment was administered p.o.b.i.d. The APL dosage administered to each animal was 200 milligrams per kilogram of body weight divided in two dosages per day, via oral gavage and the pioglitazone dosage received each animal was 20 milligrams per kilogram of body weight divided in two dosages per day, via oral gavage. “HFD” is high fat/high fructose diet, which contains 58% fat, 25% carbohydrate and 17% protein. HFD was obtained from Research Diets, Inc. “Chow” refers to standard rodent chow (Cat #5053, obtained from Labdiet, Saint Louis, MO). Animals were fed ad libitum, except during the GTT experiments.
At the conclusion of the experimental time period (78 days for rats and 130 days for mice), the animals were subjected to a glucose tolerance test (GTT) as follows. Animals were fasted for 5 hours, weights, and their tails were clipped to measure fasting blood glucose levels. Immediately after, glucose (2 mg/g body weight) was administered orally. Glucose levels were measured at 0, 15, 30, 45, 60, and 120 minutes after glucose administration. Glucose was measured using the AlphaTRAK 2 glucometer from Abbott

[2] = system: C57BL/6J mice fed high fat/high fructose diet (HFD); assay: Hepatic steatosis: liver histology (H&E, BODIPY/DAPI) in HFD mouse NASH model
Text: As in Example 1, C57BL/6 mice (same sample of mice as in Example 1) were maintained in cages (5 mice per cage) and had free access to standard rodent chow (Cat #5053, obtained from Labdiet, Saint Louis, MO) and water (filtered and packed using a Hydrapak system) for 5 days. […] The APL dose was 200 milligram per kilogram (mg/kg) per day, administered as two 100 milligram per kilogram (mg/kg) body weight APL (p.o.b.i.d.). Animals were fed ad libitum. The animals were humanely euthanized, and the livers were removed for histological analysis. Liver samples in formalin were allowed to fix for 48 hours, and processed into FFPE blocks after fixations. Slides were stained with hematoxylin and eosin (H&E) and to immunostaining with BODIPY and DAPI to quantitate fat deposition and nuclei number using confocal microscopy. See, e.g., Rico et al, 2007, J Cell Physiol, 211(2):504-12; and Daemen et al, 2016, Mol Metab, 5(3) 153-63. The data are depicted in FIGS. 3, 4, and 5
FIG. 5D is the plot of fat deposition assessed using confocal microscopy. Measurements were made in 20×-magnification fields. More than 21 fields from three different animals from each group were analyzed: Chow-vehicle (#fields=26), HFD-Vehicle (#fields=25) and HFD-APL (#fields=23). Indirect measurement using imageJ (Schneider et al., 2012, Nature Methods 9(7): 671-675) was used to calculate fat deposition. Fat deposition was increased 3-fold in HFD/vehicle-treated mice compared with CHOW control mice and with HFD/APL-treated mice (***p<0.001).

[3] = system: C57BL/6J mice fed AMLN diet changed to HFD; assay: NAS and liver fibrosis in AMLN diet mouse model of NASH; details: APL p.o. b.i.d., 16 weeks
Experimental: FIG. 12, comprising FIGS. 12A and 12B, depicts data regarding NAS and fibrosis in an AMLN diet mouse model of NASH. C57BL/6J mice were fed either CHOW or a modified AMLN diet that was changed to HFD after twenty (20) weeks. At seek fifty (50) mice were treated with vehicle or APL (p.o.b.i.d.). The APL dosage 25, 50, or 100 mg/kg, oral administration (p.o.) in two dosages per day (b.i.d.) (total dosage of 50, 100, or 200 mg/kg/day). After sixteen (16) weeks of treatment with vehicle or APL biopsies were collected and stained with hematoxylin & eosin (H&E) and evaluated for steatosis, inflammation, and hepatocyte ballooning. FIG. 12A depicts the reduction in NAS the treated group as compared to the positive control. […] FIG. 12B depicts the reduction in liver fibrosis in the treated group as compared to the positive control.
C57BL/6 mice were maintained in cages and had free access to standard rodent chow (Cat #5053, obtained from Labdiet, Saint Louis, MO) and water. C57BL/6J mice were fed either CHOW (negative control) or amylin liver NASH (AMLN) diet (58% high fat, 25% carbohydrate, 2% cholesterol) for twenty (20) weeks. Beginning at twenty (20) weeks, animals fed AMLN diet were changed to HFD. At fifty (50) weeks, animals were treated twice daily (b.i.d.) with oral administration (p.o.) of either vehicle (positive control) or APL (treated).

[4] = HFD mice, APL 200 mg/kg/day p.o. b.i.d., 20 weeks

SMILES: NCCCNCCCC[C@H](N)C(=O)O [APL, (S)-2-amino-6-((3-aminopropyl)amino)hexanoic acid]
- AUC of GTT, obese rats treated with APL vs obese rats treated with vehicle (Zucker fa/fa obese rats): significantly lower
- AUC of GTT of HFD/vehicle mice compared to mice fed HFD and treated with APL ([1]; **p<0.01): significantly higher
- blood glucose levels in GTT, treated vs negative control (chow vehicle) ([1]; HFD mice, any time point 0-120 min): no significant statistical difference
- blood glucose levels in GTT, treated vs positive control (HFD vehicle) ([1]; HFD mice, at 15-min (p<0.0001), 60-min (p<0.05), 120-min (p<0.001)): significant statistical difference
- number of nuclei (DAPI) of HFD/vehicle mice compared to mice fed HFD and treated with APL ([2]; APL 200 mg/kg/day p.o. b.i.d., ***p<0.001): statistically significant fewer
- fat deposition, increase in HFD/vehicle-treated mice compared with HFD/APL-treated mice ([2]; APL 200 mg/kg/day p.o. b.i.d., confocal microscopy, ImageJ, ***p<0.001): 3 fold
- hepatocyte ballooning induced by HFD in H&E liver sections (FIG. 3) ([2]; HFD mice treated with APL for 131 days, 20x magnification): minimal or no ballooning
- anatomical structure of the liver, H&E (FIG. 5A) ([2]; HFD mice, APL 200 mg/kg/day p.o. b.i.d.): retained the normal anatomy of the liver
- hepatocyte fat accumulation, inflammatory infiltration and hepatocyte ballooning in H&E liver sections ([2]; HFD mice, APL 200 mg/kg/day p.o. b.i.d., 18 weeks, vs HFD vehicle): less severe
- fat deposition, treated group vs negative control (chow vehicle) [2, 4]: No significant statistical difference
- number of nuclei (hepatocytes), treated group vs negative control (chow vehicle) [2, 4]: no statistical differences
- liver fibrosis vs positive control (FIG. 12B) ([3]; ****p<0.0001): significant reduction
- NAS vs positive control (FIG. 12A) ([3]; ***p<0.001): significant reduction
